Source: US20080051418A1, “Arylalkanoic Acid Derivative” (priority 2004, published 2008)
Where two headings read alike, the source gives them in different places.

Key:
PPARδ-RXRα heterodimer = target: T1, PPARδ-RXRα heterodimer (Homo sapiens, UniProt Q03181); test: PPARδ-RXRα heterodimer ligand activity (luciferase reporter); type: cell-based; details: transformant of Reference Example 9a of WO03/099793, 36-48 hr, concentration showing 50% of the maximum induction rate
T1 construct: expressed in transfected cells
T1 sequence (Q03181 1-441): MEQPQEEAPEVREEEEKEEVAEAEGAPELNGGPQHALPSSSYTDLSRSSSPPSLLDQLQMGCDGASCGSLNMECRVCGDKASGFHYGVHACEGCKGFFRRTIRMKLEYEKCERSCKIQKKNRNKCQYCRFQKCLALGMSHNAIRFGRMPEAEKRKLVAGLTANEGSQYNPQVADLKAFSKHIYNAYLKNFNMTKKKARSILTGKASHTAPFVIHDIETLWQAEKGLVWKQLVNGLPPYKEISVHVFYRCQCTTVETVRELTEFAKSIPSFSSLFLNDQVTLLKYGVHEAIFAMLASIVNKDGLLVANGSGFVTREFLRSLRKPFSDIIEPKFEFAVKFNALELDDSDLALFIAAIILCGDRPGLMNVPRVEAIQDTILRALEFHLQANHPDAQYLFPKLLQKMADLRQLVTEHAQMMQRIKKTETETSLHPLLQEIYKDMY
T1 sequence (P19793 1-462 partner): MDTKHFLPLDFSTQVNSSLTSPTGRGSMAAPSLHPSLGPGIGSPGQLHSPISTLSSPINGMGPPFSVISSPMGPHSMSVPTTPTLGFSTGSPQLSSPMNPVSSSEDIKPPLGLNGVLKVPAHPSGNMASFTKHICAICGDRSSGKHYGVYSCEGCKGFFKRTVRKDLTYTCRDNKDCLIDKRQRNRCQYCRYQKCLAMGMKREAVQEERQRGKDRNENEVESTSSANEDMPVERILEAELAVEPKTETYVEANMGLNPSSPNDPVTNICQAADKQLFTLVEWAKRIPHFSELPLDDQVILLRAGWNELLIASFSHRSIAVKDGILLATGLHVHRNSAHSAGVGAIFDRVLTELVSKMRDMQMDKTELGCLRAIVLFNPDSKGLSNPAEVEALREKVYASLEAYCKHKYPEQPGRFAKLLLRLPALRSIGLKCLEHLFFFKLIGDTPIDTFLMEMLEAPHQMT
Experimental: The transformant described in Reference Example 9a of WO03/099793 was suspended in a DMEM medium [manufactured by Life technologies, Inc., US] containing 0.1% fatty acid-free bovine serum albumin (BSA) (manufactured by Wako Pure Chemical Industries, Ltd.), and inoculated to each well of a 96 well white plate [manufactured by Corning Coster Corporation, US] by 80 μl to 1×10^4 cells/well. Then, the test compound (20 μl) was added, and cultured under the conditions of 37° C., 5% CO2 for 36-48 hr. The medium was removed from the 96 well white plate, 40 μl of PicaGene LT 7.5 (manufactured by Wako Pure Chemical Industries, Ltd.) diluted 2-fold with HBSS (HANKS' BALANCED SALT SOLUTION) [manufactured by BIO WHITTAKER, US] was added and, after stirring, the luciferase activity was determined using the 1420 ARVO Multilabel Counter [manufactured by PerkinElmer, US].
The induction rate was calculated from the luciferase activity of each test compound based on the luciferase activity of the test compound non-administration group as 1. The test compound concentration and the induction rate were analyzed by PRISM [manufactured by GraphPad Software, Inc., US] to calculate EC50 value (compound concentration showing 50% of the maximum value of induction rate) of the test compound.

PPARγ-RXRα heterodimer = target: T2, PPARγ-RXRα heterodimer (Homo sapiens, UniProt P37231); test: PPARγ-RXRα heterodimer ligand activity (luciferase reporter); type: cell-based; details: PPARγ:RXRα:4ERPP/CHO-K1 cells, 18-24 hr, concentration showing 50% of the maximum induction rate
T2 construct: expressed in transfected cells; host or cells: CHO-K1
T2 sequence (P37231 1-505): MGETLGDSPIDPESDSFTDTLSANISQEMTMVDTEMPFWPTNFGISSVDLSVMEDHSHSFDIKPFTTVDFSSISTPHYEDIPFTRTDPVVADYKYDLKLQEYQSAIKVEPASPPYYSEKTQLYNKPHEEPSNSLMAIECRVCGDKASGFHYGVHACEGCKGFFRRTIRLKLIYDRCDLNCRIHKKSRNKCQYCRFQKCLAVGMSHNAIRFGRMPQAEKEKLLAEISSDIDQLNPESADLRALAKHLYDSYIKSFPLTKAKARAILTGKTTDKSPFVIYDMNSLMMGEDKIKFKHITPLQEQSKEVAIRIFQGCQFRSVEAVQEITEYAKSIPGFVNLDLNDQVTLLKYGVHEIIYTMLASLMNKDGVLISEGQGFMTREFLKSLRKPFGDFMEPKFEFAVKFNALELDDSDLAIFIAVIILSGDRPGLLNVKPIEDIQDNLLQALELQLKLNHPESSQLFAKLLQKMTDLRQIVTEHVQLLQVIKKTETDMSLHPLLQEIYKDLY
T2 sequence (P19793 1-462 partner): T1 sequence (P19793 1-462 partner)
Summary of the method: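 CHO-K1 cells carrying PPARγ, RXRα and a 4ERPP luciferase reporter, exposed to compound 18–24 h at 37 °C in Ham F12 with 0.1% fatty acid-free BSA. Luciferase induction expressed relative to untreated cells (= 1). EC50 is concentration giving 50% of maximal induction.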

KKA^y mice [1] = test: Blood glucose and blood lipid (triglyceride) lowering action in mice; type: in vivo; details: Mus musculus, po, 96 h, 0.005% in powder diet, 4 days, non-administration group = 100%
From the text: The test compound was mixed with a powder diet (CE-2, CLEA JAPAN, INC.) at a proportion of 0.005% (0.01% for the compound of Example 105) and freely given to KKA^y mice (9 to 12-week-old, 5 mice per group) which are obesity-insulin independent diabetes mellitus (type-2 diabetes) models, for 4 days. During this period, water was freely given. The blood was drawn from the orbital venous plexus. Glucose and triglyceride in the plasma separated from the blood were quantitated using L Type Wako Glu2 (Wako Pure Chemical Industries, Ltd.) and L Type Wako TG•H (Wako Pure Chemical Industries, Ltd.), respectively, according to an enzyme method.

KKA^y mice [2] = test: Plasma antiatherogenic index increasing action in mice; type: in vivo; details: Mus musculus, po, 96 h, 0.005% in powder diet, 4 days, increase rate of (HDL cholesterol/total cholesterol)×100, non-administration group = 100%
Experimental: The test compound was mixed with a powder diet (CE-2, CLEA JAPAN, INC.) at a proportion of 0.005% (0.01% for the compound of Example 105) and freely given to KKA^y mice (9 to 12-week-old, 5 mice per group) which are obesity-insulin independent diabetes mellitus (type-2 diabetes) models, for 4 days. During this period, water was freely given. The blood was drawn from fundus and the components were measured using the plasma separated from the blood. The total cholesterol was quantified using L Type Wako cholesterol (Wako Pure Chemical Industries, Ltd.). In addition, an HDL cholesterol precipitation reagent (Wako Pure Chemical Industries, Ltd.) was added to a part of the plasma to allow precipitation of a non-HDL lipoprotein, and the cholesterol (HDL cholesterol) of the supernatant was measured. The plasma antiatherogenic index [(HDL cholesterol/total cholesterol)×100] was calculated from these cholesterol values.

[3] = lowering rate of plasma glucose, read-out: hypoglycemic action (%)
[4] = lowering rate of plasma triglyceride, read-out: hypolipidemic action (%)

Compound | EC50 (PPARδ-RXRα heterodimer) | EC50 (PPARγ-RXRα heterodimer) | inhibition in vivo at 0.005 % (KKA^y mice [1]; [3]) | inhibition in vivo at 0.005 % (KKA^y mice [1]; [4]) | melting point | change in vivo at 0.005 % (KKA^y mice [2])
CCn1cc(CC(=O)O)c(OCCCc2ccc(OC(C)C)cc2Oc2ncc(C(F)(F)F)cc2Cl)n1 [Example 117, {3-[3-(2-{[3-chloro-5-(trifluoromethyl)pyridin-2-yl]oxy}-4-isopropoxyphenyl)propoxy]-1-ethyl-1H-pyrazol-4-yl}acetic acid] | 4.3 nM | 0.78 nM | 49% | 18% |  | 
COc1cccc(CC(=O)O)c1OCCCc1cc(OC(C)C)nn1Cc1ccc(C(F)(F)F)cc1Cl [Example 66, [2-(3-{1-[2-chloro-4-(trifluoromethyl)benzyl]-3-isopropoxy-1H-pyrazol-5-yl}propoxy)-3-methoxyphenyl]acetic acid] | 2.8 nM | 1.2 nM |  |  | 98 to 99 °C | 
COc1cccc(CC(=O)O)c1OCCCc1ccc(OC(C)C)cc1Oc1ccc(C(F)(F)F)cn1 [Example 107, {2-[3-(4-isopropoxy-2-{[5-(trifluoromethyl)pyridin-2-yl]oxy}phenyl)propoxy]-3-methoxyphenyl}acetic acid] |  |  |  |  |  | 13%
COc1cccc(CC(=O)O)c1OCCCc1cc(OC(C)C)nn1Cc1ccc(F)cc1Cl [Example 64, (2-{3-[1-(2-chloro-4-fluorobenzyl)-3-isopropoxy-1H-pyrazol-5-yl]propoxy}-3-methoxyphenyl)acetic acid] | 93 nM | 11 nM | 59% | 71% |  | 
COCOc1ccc(CCCOc2nn(Cc3ccccc3)cc2CC(=O)O)c(Oc2ncc(C(F)(F)F)cc2Cl)c1 [Example 112, (3-{3-[2-{[3-chloro-5-(trifluoromethyl)pyridin-2-yl]oxy}-4-(methoxymethoxy)phenyl]propoxy}-1-benzyl-1H-pyrazol-4-yl)acetic acid] | 57 nM | 0.57 nM |  |  | 108 to 109 °C | 
CC(C)Oc1cc(CCCOc2cc(CCC(=O)O)n(-c3ccccc3)n2)cc(COc2ccc(Cl)cc2Cl)c1 [Example 196, 3-[3-(3-{3-[(2,4-dichlorophenoxy)methyl]-5-isopropoxyphenyl}propoxy)-1-phenyl-1H-pyrazol-5-yl]propanoic acid] | 11 nM | 16 nM |  |  | 104 to 106 °C | 
COCCOc1ccc(CCCOc2nn(C)cc2CC(=O)O)c(Oc2ncc(C(F)(F)F)cc2Cl)c1 [Example 122, (3-{3-[2-{[3-chloro-5-(trifluoromethyl)pyridin-2-yl]oxy}-4-(2-methoxyethoxy)phenyl]propoxy}-1-methyl-1H-pyrazol-4-yl)acetic acid] | 76 nM | 4.1 nM | 72% | 33% | 127 to 129 °C | 
CC(C)Oc1ccc(CCCOc2cc(CCC(=O)O)n(-c3ccccc3)n2)c(Oc2ncc(C(F)(F)F)cc2Cl)c1 [Example 136, 3-{3-[3-(2-{[3-chloro-5-(trifluoromethyl)pyridin-2-yl]oxy}-4-isopropoxyphenyl)propoxy]-1-phenyl-1H-pyrazol-5-yl}propanoic acid] | 2.5 nM | 0.42 nM | 57% | 38% | 86 to 88 °C | 
CCn1nc(OCCCc2ccc(OC(C)C)cc2Oc2ncc(C(F)(F)F)cc2Cl)cc1CCC(=O)O [Example 141, 3-{3-[3-(2-{[3-chloro-5-(trifluoromethyl)pyridin-2-yl]oxy}-4-isopropoxyphenyl)propoxy]-1-ethyl-1H-pyrazol-5-yl}propanoic acid] | 6.9 nM | 1.6 nM | 44% | 41% | 73 to 74 °C | 
CC(C)Oc1ccc(CCCOc2cc(CCC(=O)O)n(-c3ccccc3)n2)c(OCc2ccc(C(F)(F)F)cc2)c1 [Example 166, 3-{3-[3-(4-isopropoxy-2-{[4-(trifluoromethyl)benzyl]oxy}phenyl)propoxy]-1-phenyl-1H-pyrazol-5-yl}propanoic acid] | 2.2 nM | 24 nM |  |  | 118 to 119 °C | 
CC(C)Oc1ccc(CCCOc2cc(CCC(=O)O)n(C(C)C)n2)c(Oc2ncc(C(F)(F)F)cc2Cl)c1 [Example 142, 3-{3-[3-(2-{[3-chloro-5-(trifluoromethyl)pyridin-2-yl]oxy}-4-isopropoxyphenyl)propoxy]-1-isopropyl-1H-pyrazol-5-yl}propanoic acid] | 14 nM | 7 nM |  |  | 127.5 to 128.5 °C | 
CC(C)Oc1ccc(CCCOc2cc(CCC(=O)O)n(-c3ccccc3)n2)c(OCc2ccc(Cl)cc2Cl)c1 [Example 160, 3-[3-(3-{2-[(2,4-dichlorobenzyl)oxy]-4-isopropoxyphenyl}propoxy) -1-phenyl-1H-pyrazol-5-yl]propanoic acid] | 6 nM | 5.3 nM |  |  | 139 to 141 °C | 
CCn1nc(OCCCCc2ccc(OC(C)C)cc2Oc2ncc(C(F)(F)F)cc2Cl)cc1CCC(=O)O [Example 158, 3-{3-[4-(2-{[3-chloro-5-(trifluoromethyl)pyridin-2-yl]oxy}-4-isopropoxyphenyl)butoxy]-1-ethyl-1H-pyrazol-5-yl}propanoic acid] | 17 nM | 7.1 nM |  |  | 129 to 130 °C | 
